# Experimental data taken from the SangsterLogP compilation.
row,SMILES,logP
1,CCc1c2ccccc2cc2ccccc12,5.52
2,O=[N+]([O-])c1cccc2ccccc12,3.06
3,Nc1ccc(Br)c2ccccc12,3.26
4,Nc1ccc2ccc3cccc4ccc1c2c34,4.01
5,CCc1cccc(CC)c1C(=O)c1c(CC)cccc1CC,6.54
6,CCCCCc1ccc(C(=O)O)cc1,4.5
7,Cc1cccc(C)c1C(=O)c1c(C)cccc1C,4.69
8,Cc1nc2ccccc2[nH]1,1.84
9,CCCc1ncc[nH]1,1.3
10,Clc1ccc2cc3ccccc3cc2c1,5.2
11,Cc1ccccc1C(=O)c1ccccc1C,3.87
12,Cc1ccc(C(=O)O)cc1C,2.95
13,Cc1cccc(C)c1C(=O)c1ccccc1,3.65
14,CCc1ncc[nH]1,0.77
15,CCCCCCCc1ccc(C(=O)O)cc1,5.56
